≈ marks a conversion by molar mass, not a printed value.
Columns and labels:
Matrix metalloprotease-9 = biological target: T1, Matrix metalloprotease-9 (Homo sapiens, UniProt P14780); assay: Off-target screening (CEREP); format: biochemical; details: read-out: percent inhibition
T1 construct: purchased Eurofins CEREP SA
How it was run: (§1)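 Test compound was screened at 10 µM as a single-point measurement in duplicate. Values are percent inhibition of radioligand signal for binding assays or of control enzymatic activity for enzyme assays.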

CDK2 = biological target: T2, CDK2 (Homo sapiens, UniProt P24941); assay: Off-target screening (CEREP); format: biochemical; details: read-out: percent inhibition
T2 construct: purchased Eurofins CEREP SA
How it was run: as §1

ZAP70 kinase = biological target: T3, ZAP70 kinase (Homo sapiens, UniProt P43403); assay: Off-target screening (CEREP); format: biochemical; details: read-out: percent inhibition
T3 construct: purchased Eurofins CEREP SA
T3 sequence (P43403 1-619): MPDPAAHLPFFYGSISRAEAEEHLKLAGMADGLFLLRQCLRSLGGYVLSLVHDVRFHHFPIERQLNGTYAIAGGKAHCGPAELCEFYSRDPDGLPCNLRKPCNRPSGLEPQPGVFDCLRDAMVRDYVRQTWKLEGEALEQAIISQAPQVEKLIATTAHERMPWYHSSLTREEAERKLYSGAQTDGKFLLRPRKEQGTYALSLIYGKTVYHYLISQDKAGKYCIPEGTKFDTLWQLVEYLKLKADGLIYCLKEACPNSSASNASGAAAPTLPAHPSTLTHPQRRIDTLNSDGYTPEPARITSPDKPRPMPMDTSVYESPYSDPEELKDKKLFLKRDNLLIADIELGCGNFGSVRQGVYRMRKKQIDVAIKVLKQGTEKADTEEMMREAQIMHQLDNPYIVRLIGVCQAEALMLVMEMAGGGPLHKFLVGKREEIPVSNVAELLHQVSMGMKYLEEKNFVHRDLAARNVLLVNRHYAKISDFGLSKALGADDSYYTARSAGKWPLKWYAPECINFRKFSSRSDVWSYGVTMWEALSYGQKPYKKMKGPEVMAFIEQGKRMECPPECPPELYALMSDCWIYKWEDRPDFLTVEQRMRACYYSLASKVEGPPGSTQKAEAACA
How it was run: as §1

Phosphodiesterase 3B = biological target: T4, Phosphodiesterase 3B (Homo sapiens, UniProt Q13370); assay: Off-target screening (CEREP); format: biochemical; details: read-out: percent inhibition
T4 construct: purchased Eurofins CEREP SA
T4 sequence (Q13370 whole entry): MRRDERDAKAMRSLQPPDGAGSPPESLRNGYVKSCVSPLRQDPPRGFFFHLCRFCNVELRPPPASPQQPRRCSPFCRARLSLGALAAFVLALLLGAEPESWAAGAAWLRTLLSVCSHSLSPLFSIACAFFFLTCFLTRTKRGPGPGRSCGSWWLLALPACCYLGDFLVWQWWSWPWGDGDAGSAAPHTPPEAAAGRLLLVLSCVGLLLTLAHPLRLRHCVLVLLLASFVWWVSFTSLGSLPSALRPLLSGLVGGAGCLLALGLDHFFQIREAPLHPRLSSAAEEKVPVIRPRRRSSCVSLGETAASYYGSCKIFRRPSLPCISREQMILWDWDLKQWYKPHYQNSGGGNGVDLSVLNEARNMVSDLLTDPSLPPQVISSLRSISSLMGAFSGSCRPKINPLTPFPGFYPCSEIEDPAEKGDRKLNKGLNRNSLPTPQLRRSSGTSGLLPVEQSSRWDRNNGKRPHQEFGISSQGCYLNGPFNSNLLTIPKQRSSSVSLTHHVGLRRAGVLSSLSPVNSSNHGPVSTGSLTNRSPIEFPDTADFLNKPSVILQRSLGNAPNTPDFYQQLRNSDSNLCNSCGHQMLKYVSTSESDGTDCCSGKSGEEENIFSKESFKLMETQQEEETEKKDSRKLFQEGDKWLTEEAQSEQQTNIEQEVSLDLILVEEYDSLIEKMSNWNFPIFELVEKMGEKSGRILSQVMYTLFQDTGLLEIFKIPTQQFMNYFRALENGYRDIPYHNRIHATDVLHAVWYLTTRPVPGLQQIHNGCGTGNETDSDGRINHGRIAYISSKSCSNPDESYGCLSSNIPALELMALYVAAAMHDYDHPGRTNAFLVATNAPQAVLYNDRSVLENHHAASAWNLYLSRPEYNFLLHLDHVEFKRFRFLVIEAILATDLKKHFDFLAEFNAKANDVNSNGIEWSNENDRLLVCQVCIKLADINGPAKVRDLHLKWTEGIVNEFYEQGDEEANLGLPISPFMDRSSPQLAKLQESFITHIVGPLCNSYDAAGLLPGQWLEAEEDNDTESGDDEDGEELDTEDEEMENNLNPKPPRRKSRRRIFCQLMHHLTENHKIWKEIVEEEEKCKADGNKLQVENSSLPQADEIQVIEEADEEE
How it was run: as §1

GSK-3A = biological target: T5, GSK-3A (Homo sapiens, UniProt P49840); assay: Off-target screening (CEREP); format: biochemical; details: read-out: percent inhibition
T5 construct: purchased Eurofins CEREP SA
T5 sequence (P49840 whole entry): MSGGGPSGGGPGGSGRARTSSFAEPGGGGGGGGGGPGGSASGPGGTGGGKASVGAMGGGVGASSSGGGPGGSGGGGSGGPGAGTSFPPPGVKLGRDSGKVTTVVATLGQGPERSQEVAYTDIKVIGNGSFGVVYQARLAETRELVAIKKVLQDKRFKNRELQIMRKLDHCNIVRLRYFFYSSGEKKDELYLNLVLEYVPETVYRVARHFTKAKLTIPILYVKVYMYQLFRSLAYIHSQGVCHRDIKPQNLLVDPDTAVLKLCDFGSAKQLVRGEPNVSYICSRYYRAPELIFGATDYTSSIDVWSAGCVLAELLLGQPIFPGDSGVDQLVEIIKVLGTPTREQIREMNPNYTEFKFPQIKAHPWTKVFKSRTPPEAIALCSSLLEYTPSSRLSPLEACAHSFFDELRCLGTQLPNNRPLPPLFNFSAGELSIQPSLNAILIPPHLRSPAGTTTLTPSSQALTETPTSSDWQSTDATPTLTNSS
How it was run: as §1

Abl kinase = biological target: T6, Abl kinase (Homo sapiens, UniProt P00519); assay: Off-target screening (CEREP); format: biochemical; details: read-out: percent inhibition
T6 construct: purchased Eurofins CEREP SA
T6 sequence (P00519 whole entry): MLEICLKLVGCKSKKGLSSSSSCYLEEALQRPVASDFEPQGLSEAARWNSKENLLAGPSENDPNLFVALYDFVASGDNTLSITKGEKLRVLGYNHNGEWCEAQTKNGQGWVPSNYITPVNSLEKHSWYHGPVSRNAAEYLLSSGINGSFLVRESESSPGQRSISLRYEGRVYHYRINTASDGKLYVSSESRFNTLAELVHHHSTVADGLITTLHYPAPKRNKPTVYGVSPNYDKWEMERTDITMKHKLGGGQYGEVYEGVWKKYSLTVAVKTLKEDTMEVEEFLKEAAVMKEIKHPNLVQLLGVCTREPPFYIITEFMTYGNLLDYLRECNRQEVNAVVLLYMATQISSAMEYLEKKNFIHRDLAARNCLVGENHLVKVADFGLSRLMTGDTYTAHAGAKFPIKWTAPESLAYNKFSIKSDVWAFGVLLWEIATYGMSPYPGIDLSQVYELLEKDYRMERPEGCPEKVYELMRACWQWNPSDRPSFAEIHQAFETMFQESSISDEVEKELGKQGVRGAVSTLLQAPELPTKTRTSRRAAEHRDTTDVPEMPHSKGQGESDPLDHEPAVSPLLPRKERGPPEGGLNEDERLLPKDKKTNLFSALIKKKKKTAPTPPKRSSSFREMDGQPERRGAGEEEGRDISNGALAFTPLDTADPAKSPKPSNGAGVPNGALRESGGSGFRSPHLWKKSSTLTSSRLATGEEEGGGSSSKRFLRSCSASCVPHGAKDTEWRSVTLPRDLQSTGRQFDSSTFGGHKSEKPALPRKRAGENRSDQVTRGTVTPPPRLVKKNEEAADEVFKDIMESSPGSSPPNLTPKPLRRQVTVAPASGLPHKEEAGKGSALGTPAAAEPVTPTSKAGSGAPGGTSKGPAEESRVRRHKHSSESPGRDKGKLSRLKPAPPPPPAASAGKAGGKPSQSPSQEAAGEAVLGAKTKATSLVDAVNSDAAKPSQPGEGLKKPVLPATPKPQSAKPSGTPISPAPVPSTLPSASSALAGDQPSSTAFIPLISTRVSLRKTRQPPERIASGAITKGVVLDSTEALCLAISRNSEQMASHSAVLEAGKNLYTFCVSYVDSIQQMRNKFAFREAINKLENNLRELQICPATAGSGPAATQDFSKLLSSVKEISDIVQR
How it was run: as §1

Cyclooxygenase 2 = biological target: T7, Cyclooxygenase 2 (Homo sapiens, UniProt P35354); assay: Off-target screening (CEREP); format: biochemical; details: read-out: percent inhibition
T7 construct: purchased Eurofins CEREP SA
T7 sequence (P35354 18-604): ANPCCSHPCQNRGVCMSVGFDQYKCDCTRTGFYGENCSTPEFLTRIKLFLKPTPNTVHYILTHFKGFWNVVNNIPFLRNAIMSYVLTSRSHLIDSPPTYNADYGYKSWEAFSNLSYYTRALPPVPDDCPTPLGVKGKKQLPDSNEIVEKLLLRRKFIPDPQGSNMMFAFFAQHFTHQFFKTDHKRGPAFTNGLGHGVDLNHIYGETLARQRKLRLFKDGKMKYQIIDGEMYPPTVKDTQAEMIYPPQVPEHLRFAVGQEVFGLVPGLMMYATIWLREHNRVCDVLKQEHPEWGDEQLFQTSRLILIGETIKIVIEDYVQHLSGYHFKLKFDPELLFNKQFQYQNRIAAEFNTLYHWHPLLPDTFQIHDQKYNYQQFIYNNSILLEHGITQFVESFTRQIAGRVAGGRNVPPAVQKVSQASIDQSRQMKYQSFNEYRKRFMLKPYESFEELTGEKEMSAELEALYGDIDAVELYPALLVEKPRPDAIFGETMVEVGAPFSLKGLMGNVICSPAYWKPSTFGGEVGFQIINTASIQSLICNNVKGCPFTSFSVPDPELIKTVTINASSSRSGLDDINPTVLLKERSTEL
How it was run: as §1

[1] = tested on: K. pneumoniae ATCC 700603; assay: microbe, parasite or virus in culture; details: for MIC: Klebsiella pneumoniae, ATCC700603; for RO7223280 MIC 100%: K. pneumoniae ATCC 700603, read at 100%
Protocol: MIC determinations were performed using the broth microdilution method and in line with CLSI guidelines M07 and M100 (refs. [37],[38]). Bacterial inocula were prepared by diluting a 0.5 McFarland suspension in CAMHB or lysogeny broth (LB) specifically for A. baylyi isolates. […] MIC values of all of the tested antibiotics were read as the lowest compound concentration inhibiting bacterial growth by naked eye or beyond which the OD600 ceased to decrease.

CYP2C9 = CYP2C9 (Homo sapiens, UniProt P11712); assay: CYP inhibition; format: in vitro ADME
Sequence of CYP2C9 (P11712 whole entry): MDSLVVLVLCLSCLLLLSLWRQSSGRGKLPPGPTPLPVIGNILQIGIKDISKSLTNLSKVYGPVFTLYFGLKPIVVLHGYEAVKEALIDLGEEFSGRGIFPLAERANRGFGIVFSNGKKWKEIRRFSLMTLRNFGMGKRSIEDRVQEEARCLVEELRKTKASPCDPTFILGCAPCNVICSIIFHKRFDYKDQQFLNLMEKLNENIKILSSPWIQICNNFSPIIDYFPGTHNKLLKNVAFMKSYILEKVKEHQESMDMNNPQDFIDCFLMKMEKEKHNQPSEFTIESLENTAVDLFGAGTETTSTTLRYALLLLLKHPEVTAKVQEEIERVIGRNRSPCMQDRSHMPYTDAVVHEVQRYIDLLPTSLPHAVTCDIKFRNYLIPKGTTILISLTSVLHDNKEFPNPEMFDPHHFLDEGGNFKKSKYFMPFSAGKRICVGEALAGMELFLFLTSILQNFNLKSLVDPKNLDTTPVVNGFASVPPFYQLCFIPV

Xanthine oxidase = biological target: T8, Xanthine oxidase (Bos taurus, UniProt P80457); assay: Off-target screening (CEREP); format: biochemical, bovine; details: read-out: percent inhibition
T8 construct: purchased Eurofins CEREP SA
T8 sequence (P80457 whole entry): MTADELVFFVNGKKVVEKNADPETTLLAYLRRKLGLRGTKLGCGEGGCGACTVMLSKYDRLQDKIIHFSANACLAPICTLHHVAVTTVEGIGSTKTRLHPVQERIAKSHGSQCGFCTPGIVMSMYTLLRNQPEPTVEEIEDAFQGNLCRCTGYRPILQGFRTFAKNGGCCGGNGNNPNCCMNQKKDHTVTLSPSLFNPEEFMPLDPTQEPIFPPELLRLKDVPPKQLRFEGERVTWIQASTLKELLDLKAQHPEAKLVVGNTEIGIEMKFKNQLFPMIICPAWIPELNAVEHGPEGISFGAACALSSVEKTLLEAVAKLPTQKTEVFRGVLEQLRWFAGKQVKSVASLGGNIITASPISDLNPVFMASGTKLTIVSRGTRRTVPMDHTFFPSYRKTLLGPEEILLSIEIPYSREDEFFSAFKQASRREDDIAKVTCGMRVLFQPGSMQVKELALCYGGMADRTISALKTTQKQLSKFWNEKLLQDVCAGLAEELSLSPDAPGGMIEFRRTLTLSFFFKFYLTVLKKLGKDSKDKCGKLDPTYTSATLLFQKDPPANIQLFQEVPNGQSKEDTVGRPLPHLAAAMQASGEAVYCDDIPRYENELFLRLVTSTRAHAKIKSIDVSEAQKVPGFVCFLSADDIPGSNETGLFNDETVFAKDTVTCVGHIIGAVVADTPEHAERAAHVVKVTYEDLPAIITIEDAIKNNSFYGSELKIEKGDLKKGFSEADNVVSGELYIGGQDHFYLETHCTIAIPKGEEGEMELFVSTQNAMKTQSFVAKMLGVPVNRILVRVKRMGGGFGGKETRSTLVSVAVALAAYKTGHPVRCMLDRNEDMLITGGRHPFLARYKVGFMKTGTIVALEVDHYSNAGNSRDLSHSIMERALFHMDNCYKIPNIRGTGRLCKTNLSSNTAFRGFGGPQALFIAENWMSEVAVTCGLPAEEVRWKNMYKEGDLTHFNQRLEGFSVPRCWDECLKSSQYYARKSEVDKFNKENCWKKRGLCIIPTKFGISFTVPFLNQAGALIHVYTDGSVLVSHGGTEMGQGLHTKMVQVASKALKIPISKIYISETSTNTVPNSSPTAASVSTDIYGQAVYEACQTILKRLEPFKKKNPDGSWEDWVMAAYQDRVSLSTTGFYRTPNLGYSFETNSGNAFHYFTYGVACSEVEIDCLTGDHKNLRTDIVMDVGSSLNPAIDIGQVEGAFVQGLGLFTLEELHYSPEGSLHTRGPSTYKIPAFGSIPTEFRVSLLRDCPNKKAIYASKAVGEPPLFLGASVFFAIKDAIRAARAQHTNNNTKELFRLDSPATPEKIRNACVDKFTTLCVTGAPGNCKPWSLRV
Protocol: Supplementary Table 1 │ Off-target activity screening f or MCP compou nds […]
The assays given in the table above were conducted at Eurofins CEREP S A (Celle-Lévescault, France) and were run as single point measurements in duplicates in the presence of 10 µ M of the test compound and reported as percent inhibition of the radioligand signal or control enzymatic activity. n.d., not

A. baumannii = assay: Immunocompetent mouse septicaemia infection model; format: in vivo
Protocol: Septicaemia was induced in CD-1 immunocompetent male mice by an intraperitoneal inoculation of a bacterial suspension of the tested A. baumannii isolate at a challenge of approximately 1–2 log[CFU] above the determined median lethal dose (resulting in 10^5 to 10^7 CFU per mouse). […] Mouse survival was followed over 6–7 days. GraphPad Prism 8 was used for graphical presentation of the data. Septicaemia studies with mutant derivative isolates obtained in resistance studies were performed as described above, using a bacterial challenge as determined for the parental isolate.

CYP3A4 = CYP3A4 (Homo sapiens, UniProt P08684); assay: CYP inhibition; format: in vitro ADME
Sequence of CYP3A4 (P08684 whole entry): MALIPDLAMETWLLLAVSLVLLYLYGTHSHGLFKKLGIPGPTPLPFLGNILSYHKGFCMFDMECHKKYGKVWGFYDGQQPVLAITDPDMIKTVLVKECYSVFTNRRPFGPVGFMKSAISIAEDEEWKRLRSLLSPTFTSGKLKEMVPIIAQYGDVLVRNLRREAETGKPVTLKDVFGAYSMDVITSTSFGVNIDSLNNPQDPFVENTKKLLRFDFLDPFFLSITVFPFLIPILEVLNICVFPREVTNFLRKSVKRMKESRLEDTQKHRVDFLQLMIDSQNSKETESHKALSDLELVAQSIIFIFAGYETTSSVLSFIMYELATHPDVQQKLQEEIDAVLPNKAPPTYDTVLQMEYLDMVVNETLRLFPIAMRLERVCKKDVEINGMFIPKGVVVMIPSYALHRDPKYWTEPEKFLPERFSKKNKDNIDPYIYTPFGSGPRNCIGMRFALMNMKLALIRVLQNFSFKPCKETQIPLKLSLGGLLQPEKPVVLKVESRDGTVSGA

[2] = murine septicaemia, MDR A. baumannii APV00535 (ACC00535), MCP 0.1 mg/kg, mark per mouse (10 mice), study VDD3948

CN1C(=O)[C@H](CCCCN)NC(=O)[C@H](CCCN)NCc2cccnc2Sc2c(Cl)ccc(Cl)c2CNC(=O)[C@@H]1Cc1c[nH]c2ccccc12 [RO7075573]
inhibition at 10 µM (Matrix metalloprotease-9): -31% | inhibition at 10 µM (CDK2): -5% | inhibition at 10 µM (ZAP70 kinase): -47% | inhibition at 10 µM (Phosphodiesterase 3B): -3% | inhibition at 10 µM (GSK-3A): -1% | inhibition at 10 µM (Abl kinase): -85% | inhibition at 10 µM (Cyclooxygenase 2): -46% | MIC [1]: > 64 mg/L | MIC 100% ([1]; Study LGC281440): 32 mg/L (≈ 43.3 µM) | MIC 100% ([1]; Study LGC282160): >64 mg/L | MIC 100% ([1]; Study LGC284879): >64 mg/L | MIC 100% ([1]; Study LGC285582): >64 mg/L | MIC 100% ([1]; Study LGC286210): >64 mg/L | MIC 100% ([1]; Study LGC293598): >64 mg/L | MIC 100% ([1]; Study LGC294355): >64 mg/L | MIC 100% ([1]; Study LGC295147): >64 mg/L | MIC 100% ([1]; Study LGC296813): >64 mg/L | MIC 100% ([1]; Study LGC299544): >64 mg/L | MIC 100% ([1]; Study LGC301026): >64 mg/L | MIC 100% ([1]; Study LGC308175): >64 mg/L | MIC 100% ([1]; Study ROC010): >64 mg/L | MIC 100% ([1]; Study ROC012): >64 mg/L | CYP inh. (2C9) (CYP2C9): > 50 µM | inhibition at 10 µM (Xanthine oxidase): 6% | Protection in lethal sepsis model (A. baumannii; ACC00535, immunocompetent mice, s.c. doses between 0.1 and 0.3 mg per kg at 1 h and 5 h): complete protection | Survivors, 2016-02-03 (A. baumannii; murine septicaemia, MDR A. baumannii APV00535 (ACC00535), MCP 0.01 mg/kg, mark per mouse (10 mice), study VDD3948): 1 | Survivors, 2016-02-03 (A. baumannii; murine septicaemia, MDR A. baumannii APV00535 (ACC00535), MCP 0.03 mg/kg, mark per mouse (10 mice), study VDD3948): 1 | Survivors, 2016-02-03 (A. baumannii; [2]): 1 | Survivors, 2016-02-04 (A. baumannii; [2]): 1 | CYP inh. (3A4) (CYP3A4): 16 µM

CN1C(=O)[C@H](CCCCN)NC(=O)[C@H](CCCN)NCc2cccnc2Sc2cccc(-c3ccc(C(=O)O)cc3)c2CNC(=O)[C@@H]1Cc1c[nH]c2ccccc12 [zosurabalpin]
inhibition at 10 µM (Matrix metalloprotease-9): 10% | inhibition at 10 µM (CDK2): 9% | inhibition at 10 µM (ZAP70 kinase): 1% | inhibition at 10 µM (Phosphodiesterase 3B): 2% | inhibition at 10 µM (GSK-3A): -1% | inhibition at 10 µM (Abl kinase): -18% | inhibition at 10 µM (Cyclooxygenase 2): -7% | RO7223280 MIC 100% ([1]; Study LGC296813): >64 mg/L | RO7223280 MIC 100% ([1]; Study LGC299544): >64 mg/L | RO7223280 MIC 100% ([1]; Study LGC308175): >64 mg/L | MIC [1]: > 64 mg/L | CYP inh. (2C9) (CYP2C9): >50 (3A4) >50 (2C9) >50 (2D6) μM | inhibition at 10 µM (Xanthine oxidase): 5% | Survival rate from sepsis, treated (A. baumannii; ACC00445 parental, 2 x 30mg/kg s.c., vehicle 0): 0/100% | Survivors, individual mouse status (A. baumannii; ACC00445 septicaemia, 0.3 mg/kg s.c. at 1 and 5 h, Day 1): 1 | Survival rate from sepsis, treated (A. baumannii; ACC00535 parental, 2 x 30mg/kg, vehicle 0): 0/100% | Survival rate from sepsis, treated (A. baumannii; ROB08706 parental, 2 x 30mg/kg, vehicle 0): 0/100% | Survival rate from sepsis, treated (A. baumannii; ROB08708 parental, 2 x 30mg/kg, vehicle 0): 0/100% | Survival rate from sepsis, treated (A. baumannii; ROB08961 (LpxM NS), 2 x 30mg/kg, vehicle 100): 100/100% | Survival rate from sepsis, treated (A. baumannii; ROB08979 (LptF R322L), 2 x 30mg/kg, vehicle 25): 25/50% | Survival rate from sepsis, treated (A. baumannii; ROB08982 (lpxM ISAba1), 2 x 30mg/kg, vehicle 87.5): 87.5/100% | Survival rate from sepsis, treated (A. baumannii; ROB08985 (LpxM NS), 2 x 30mg/kg, vehicle 100): 100/100% | Survival rate from sepsis, treated (A. baumannii; ROB08997 (LptF I323K), 2 x 30mg/kg, vehicle 0): 0/0% | Survival rate from sepsis, treated (A. baumannii; ROB08998 (AdeR A91V), 2 x 30mg/kg, vehicle 12.5): 12.5/100% | Survival rate from sepsis, treated (A. baumannii; ROB09000 (lpxM ISAba1), 2 x 30mg/kg, vehicle 100): 100/100% | Survival rate from sepsis, treated (A. baumannii; ROB21530 (LptF W271S), 2 x 30mg/kg, vehicle 25): 25/37.5% | Survival rate from sepsis, treated (A. baumannii; ROB21531 (LptG G40D), 2 x 30mg/kg, vehicle 0): 0/87.5% | Survival rate from sepsis, treated (A. baumannii; ROB21532 (LptF R322C), 2 x 30mg/kg, vehicle 50): 50/50% | Survival rate from sepsis, treated (A. baumannii; ROB21533 (LptF I317L), 2 x 30mg/kg, vehicle 0): 0/0% | Survival rate from sepsis, treated (A. baumannii; ROB23370 (adeS ISAba1), 2 x 30mg/kg, vehicle 0): 0/75% | Survival rate from sepsis, treated (A. baumannii; ROB23371 (AdeS R152K), 2 x 30mg/kg, vehicle 0): 0/100% | Survival rate from sepsis, treated (A. baumannii; ROB23373 (AdeS G318S), 2 x 30mg/kg, vehicle 0): 0/100% | Survival rate from sepsis, treated (A. baumannii; ROB23377 (AdeS R108S), 2 x 30mg/kg, vehicle 0): 0/100% | Survival rate from sepsis, treated (A. baumannii; ROB23380 (adeS ISAba1), 2 x 30mg/kg, vehicle 0): 0/100% | CYP inh. (3A4) (CYP3A4): >50 (3A4) >50 (2C9) >50 (2D6) μM
